Results on one compound are retold here after patent EP3324923B1, “COMPOSITIONS AND METHODS USING PALYTHINE” (King's College London, priority 2015, dated 2017).

Series [1] has as its system HaCaT keratinocytes. Kind of series: Cell viability by neutral red uptake assay after irradiation. It is filed as cell-based, human. The settings on record: 20J/cm2 of SSR; 0.3 %, 4 % or 10 % (w/v) palythine; 24 hrs later; n=3; p=<0.0001. The protocol:
(§1) All assays were performed on HaCat cells grown as a 70-80 % confluent monolayer in multiwell plates. They were washed three times in PBS and covered with palythine dissolved in PBS at differing concentrations (0, 0.1, 0.3 %, 4 % and 10 % w/v). The cells were then irradiated with either SSR or UVA radiation (5-20 J/cm^2 or 20 J/cm^2 respectively). After irradiation the palythine solution was removed and the cells washed a further three times and replaced in media or processed immediately depending on the experimental design.
Cell viability was measured 24 hours post irradiation using the neutral red uptake assay. Neutral red solution (4µgml^-1 in growth medium) (Sigma, UK) was added to the cells and they were incubated at 37 °C, 5 % CO2 for 2 hrs. Cells were washed three times in PBS to remove excess neutral red solution and then the destain solution (50 % v/v ethanol, 49 % v/v ddH2O, 1 % v/v glacial acetic acid) was added. Optical density was measured at 540 nm.
HaCaT keratinocytes were untreated, exposed to 20J/cm2 of SSR with PBS alone, 0.3 % (w/v), 4 % (w/v) or 10 % (w/v) of palythine or 10 % (w/v) palythine without exposure to UVR. Cell viability was measured 24 hrs later by the neutral red assay. Columns represent the mean ± SD (n=3).

The subject of series [2] is HaCaT keratinocytes. Kind of series: Reactive oxygen species assay by FACS (carboxy-H2DCFDA), UV filtering and antioxidant effect, Example 16. It is filed as cell-based, human. The following applies: for ROS production compared to irradiated control: 20J/cm^2 of SSR, n=5, p<0.0001. The protocol:
DNA damage was then measured using the comet assay and IHC-IF looking at the specific DNA lesions of cyclobutane pyrimidine dimers (CPD) and 8-oxoGua. A percentage reduction in general and specific DNA damage was then determined by comparing cells irradiated with and without sunscreen compositions. Antioxidant ability was detected using H2DCFDA, which fluoresces when reacting with ROS with the addition of palythine post exposure. SSR induced gene expression covering a range of different markers (inflammation, photoageing, oxidative damage) was assessed using qPCR. The ability of palythine to reduce this gene expression was then assessed.
as §1
HaCat cells were irradiated as above or for the anti-oxidant studies, cells were also incubated with palythine post irradiation. Cells were then incubated with 10uM carboxy-H2DCFDA (Invitrogen, UK) in PBS for 30 mins in the dark at 37 °C, 5 % CO2. Cells were washed in PBS, trypsinised for 10 minutes at 37 °C, centrifuged at 1200 rpm for 5 minutes at room temperature and resuspended in PBS and counterstained with DAPI for analysis by FACS. This was carried out with a Becton Dickinson FACSAria II. Cells were gated to only analyse live cells (DAPI negative) and the average mean green intensity per condition was then plotted from at least 10,000 measured events. Analysis was carried out using FlowJo 8.7 (USA).
On the technique in general: Flow cytometry measures light scatter and fluorescence of single cells or particles in a stream.

Series [3] can be described thus: Photostability under increasing doses of solar simulated radiation (absorbance). It is filed as physicochemical. How it is done:
(§2) palythine was extracted from the red algae Palmaria decipiens using a methanol extraction (Confirmed by HPLC & LC-MS). The absorbance profile was determined and then the extract was exposed to increasing doses of solar simulated radiation (SSR) from a solar simulator (conforming to COLIPA standards). The absorbance profile was measured to determine photostability. Compositions according to the invention (in this example solutions of palythine) were prepared at different palythine concentrations (0.3% to 10%), as well as controls comprising 0% palythine, and HaCat keratinocytes were irradiated with SSR or UVA radiation through the solutions, which were placed on top of the cells.
(§3) Palythine was exposed to increasing doses of solar simulated radiation and absorbance measured. The absorbance spectrum of the palythine was measured between 280-400 nm using a Spectra Max 384 Plus (Molecular Devices; California, USA) spectrophotometer. Referring to figure 18, we show the photostability of palythine after exposure to increasing doses of solar simulated radiation. Palythine (0.0001% w/v palythine extracted from red algae Chondrus yendoi in PBS) was exposed to increasing doses of solar simulated radiation and the absorbance was measured to determine photostability.

A short description of a further series: Absorbance profile. It is filed as physicochemical. The following applies: Example 14. The protocol: as §2, §3

Consider `COC1=C(NCC(=O)O)CC(O)(CO)CC1=N` (stereo not shown) [palythine], for which, in the series on HaCaT keratinocytes [1], the “protection against UVR induced cell death (cell viability)” value is “significant protection”. The “ROS production compared to irradiated control” value in the series with HaCaT keratinocytes [2] (10% palythine post exposure (anti-oxidant)) and with HaCaT keratinocytes [2] (palythine 0.3-10%w/v added pre exposure) was “significant reduction” each time. Further, the “ROS production due to SSR irradiation (anti-oxidant properties)” value with HaCaT keratinocytes [2] (Example 14, H2DCFDA, addition of palythine post exposure, p=<0.05) is given as “significant reduction”. In addition, the photostability entry is “extremely photostable with negligible photodegradation” in series [3] (after 40SED of solar simulated radiation, 0.0001% w/v palythine from Chondrus yendoi in PBS, absorbance 280-400 nm) and “extremely photostable” in series [3] (after 60 standard erythema doses (SED) of SSR, palythine from Palmaria decipiens). Further, the “absorbing in the UVB and UVA ranges” value in “Absorbance profile” was 290-350 nm.
